Laboratory results: paper PMC12169749, “Isolation, biochemical characterization, and primary structure and active site determination of Dioscorea opposita (‘Nagaimo’) oligopeptidase B” (Biochemistry and Biophysics Reports, 2025)
Numbered stars: 1 amine (or outer) side, 2 acyl side, 3 side chain; on linkers, the order of the positions; unused ones are H or OH. Peptide text beside a SMILES is read from it. * marks the point of attachment. AMC = Cc1cc(=O)oc2cc(N*)ccc12; Cbz = O=C(OCc1ccccc1)*; Boc = CC(C)(C)OC(=O)*; CO = O=C([*:1])[*:2]

Test system: T1, oligopeptidase B (OPB); Nagaimo protease
T1 construct: native, purified from tubers; monomer, 75 kDa by gel filtration, 81 kDa by reducing SDS-PAGE; internal tryptic peptide SAGGLLMGAVLNMR
Assay: fluorometric AMC release, Lineweaver-Burk
Type: biochemical, Dioscorea polystachya
Conditions: Tris-HCl pH 8.0, 37 °C
Text: fluorometric AMC release, Lineweaver-Burk on oligopeptidase B (OPB); Nagaimo protease

Row | Km [µM] | SMILES
1 | 12.5 | Cc1cc(=O)oc2cc(NC(=O)[C@H](CCCNC(=N)N)NC(=O)[C@@H]3CCCN3C(=O)[C@@H](NC(=O)OC(C)(C)C)C(C)C)ccc12 [Boc-Val-Pro-Arg-MCA] (Boc-Val-Pro-Arg-{AMC})
2 | 11.8 | Cc1cc(=O)oc2cc(NC(=O)[C@H](CCCNC(=N)N)NC(=O)[C@@H]3CCCN3C(=O)CNC(=O)OCc3ccccc3)ccc12 [Z-Gly-Pro-Arg-MCA] (Cbz-Gly-Pro-Arg-{AMC})
3 | 10 | Cc1cc(=O)oc2cc(NC(=O)[C@H](CCCNC(=N)N)NC(=O)[C@H](Cc3ccccc3)NC(=O)[C@@H]3CCCN3)ccc12 [Pro-Phe-Arg-MCA] (H-Pro-Phe-Arg-{AMC})
4 | 17.9 | Cc1cc(=O)oc2cc(NC(=O)[C@@H](N)CCCNC(=N)N)ccc12 [Arg-MCA]

The remaining lines, values behind:

Row | SMILES | Km [µM]
5 | Cc1cc(=O)oc2cc(NC(=O)[C@H](CCCNC(=N)N)NC(=O)[C@H](CCCNC(=N)N)NC(=O)OCc3ccccc3)ccc12 [Z-Arg-Arg-MCA] (Cbz-Arg-Arg-{AMC}) | 10
6 | Cc1cc(=O)oc2cc(NC(=O)[C@H](CCCNC(=N)N)NC(=O)[C@H](CC(C)C)NC(=O)OCc3ccccc3)ccc12 [Z-Leu-Arg-MCA] | 12.5
7 | Cc1cc(=O)oc2cc(NC(=O)[C@H](CCCCN)NC(=O)[C@H](CC(C)C)NC(=O)[C@@H](NC(=O)OC(C)(C)C)C(C)C)ccc12 [Boc-Val-Leu-Lys-MCA] (Boc-Val-Leu-Lys-{AMC}) | 10
8 | Cc1cc(=O)oc2cc(NC(=O)[C@H](CCCNC(=N)N)NC(=O)[C@H](CCCNC(=N)N)NC(=O)[C@H](CCC(N)=O)NC(=O)OC(C)(C)C)ccc12 [Boc-Gln-Arg-Arg-MCA] (Boc-Gln-Arg-Arg-{AMC}) | 15
9 | Cc1cc(=O)oc2cc(NC(=O)[C@H](CCCCN)NC(=O)[C@H](CCCCN)NC(=O)[C@H](CCC(=O)O)NC(=O)OC(C)(C)C)ccc12 [Boc-Glu-Lys-Lys-MCA] (Boc-Glu-Lys-Lys-{AMC}) | 5
10 | Cc1cc(=O)oc2cc(NC(=O)[C@H](CCCNC(=N)N)NC(=O)c3ccccc3)ccc12 [Bz-Arg-MCA] | 10
11 | Cc1cc(=O)oc2cc(NC(=O)[C@H](CCCNC(=N)N)NC(=O)[C@@H](NC(=O)[C@@H](NC(=O)OCc3ccccc3)C(C)C)C(C)C)ccc12 [Z-Val-Val-Arg-MCA] (Cbz-Val-Val-Arg-{AMC}) | 10
12 | Cc1cc(=O)oc2cc(NC(=O)[C@H](CCCNC(=N)N)NC(=O)[C@H](Cc3ccccc3)NC(=O)OCc3ccccc3)ccc12 [Z-Phe-Arg-MCA] (Cbz-Phe-Arg-{AMC}) | 11

Molecular target: T1, oligopeptidase B (OPB); Nagaimo protease
Assay: fluorometric AMC release, inhibitor titration
Type: biochemical, Dioscorea polystachya
Conditions: 100 μM Bz-Arg-MCA, 50 mM Tris-HCl pH 8.0, 10 min preincubation at 23 °C, assay 37 °C
Text: fluorometric AMC release, inhibitor titration on oligopeptidase B (OPB); Nagaimo protease

Row | IC50 [nM] | SMILES
13 | 120 | CC(=O)N[C@@H](CC(C)C)C(=O)N[C@@H](CC(C)C)C(=O)N[C@H](C=O)CCCNC(=N)N [Leupeptin]
14 | 210 | CC(C)[C@H](NC(=O)[C@H](CCCNC(=N)N)NC(=O)N[C@@H](Cc1ccccc1)C(=O)O)C(=O)N[C@H](C=O)CCCNC(=N)N [Antipain] ({Phe-CO}-Arg-Val-Arg-aldehyde)

Same assay, conditions: 100 μM Bz-Arg-MCA, 50 mM Tris-HCl pH 8.0, 10 min preincubation at 23 °C, assay 37 °C; covalent

Row | SMILES | IC50 [nM]
15 | O=c1oc(Cl)c(Cl)c2ccccc12 [DCI, 3,4-dichloroisocoumarin] | 30000
16 | NCCc1ccc(S(=O)(=O)F)cc1 [AEBSF, 4-(2-aminoethyl)-benzenesulfonyl fluoride] | 700
17 | Cc1ccc(S(=O)(=O)N[C@@H](CCCCN)C(=O)CCl)cc1 [TLCK] | 70

Same assay, conditions: 100 μM Bz-Arg-MCA, 50 mM Tris-HCl pH 8.0, 10 min preincubation at 23 °C, assay 37 °C; covalent, cysteine-directed

Row | IC50 [nM] | SMILES
18 | 880000 | CCN1C(=O)C=CC1=O [NEM, N-ethylmaleimide]
